Test results reported in PubChem BioAssay (NCI).
Values after ≈ are worked out from the molar mass of the structure shown. Values joined by “and” are separate entries in the source; they are usually repeats but may differ in a detail not shown here. Equal entries are not always repeated.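 Results reflect a 48-hour exposure of cells in 96-well plates to compound at five concentrations. Abbreviation: GI50, concentration required for 50% inhibition of growth. The concentration for full growth arrest is given as TGI.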 Active and inactive are the calls of the source. No stated cut-off is given here; in the data, active means GI50 below about 0.43 µM; inactive means the rest.

Tests used:
Assay in all cases: NCI anticancer screen, dose series, 48 h
[1] = tested on: CCRF-CEM leukemia
[2] = tested on: DLD-1 colon
[3] = tested on: HOP-18 NSCLC
[4] = tested on: KM20L2 colon
[5] = tested on: M19-MEL melanoma
[6] = tested on: SF-539 CNS
[7] = tested on: SNB-78 CNS
[8] = tested on: UACC-62 melanoma
[9] = tested on: DMS 114 small cell lung
[10] = tested on: M14 melanoma

SMILES: COc1cc2c(cc1OC)C(Cc1c3ccccc3cc3ccccc13)N(C)CC2 (configuration not stated)
- TGI [1]: 93 µM
- TGI [2]: > 100 µM
- TGI [3]: 50.4 µM
- TGI [4]: 40.5 µM
- TGI [5]: 49.8 µM
- TGI [6]: 47.1 µM
- TGI [7]: > 73.1 µM
- TGI [8]: 40.8 µM

SMILES: S=C(Nc1ccccc1)N1N=C2c3ccccc3CC[C@H]2[C@@H]1c1ccccc1
- TGI [2]: > 100 µM
- TGI [9]: > 100 µM
- TGI [3]: > 100 µM
- TGI [4]: > 100 µM
- TGI [10]: > 100 µM
- TGI [5]: > 100 µM
- TGI [6]: > 100 µM
- TGI [7]: > 100 µM
- TGI [8]: > 100 µM

SMILES: Cn1c(=O)c2nc(N3CCCCC3)cnc2n(C)c1=O
- TGI [1]: > 100 µM
- TGI [2]: > 100 µM
- TGI [4]: > 100 µM
- TGI [10]: > 100 µM
- TGI [5]: > 100 µM
- TGI [6]: > 100 µM
- TGI [8]: > 100 µM

SMILES: CN1OC2OC(=O)OC2[C@H]1[C@H]1O[C@H](c2ccccc2)OC1(C)c1cc(OC(=O)c2ccccc2)ccc1OC(=O)c1ccccc1 (some centres not stated)
- TGI [1]: > 50 µM
- TGI [2]: > 50 µM
- TGI [9]: > 50 µM
- TGI [4]: > 50 µM
- TGI [10]: > 50 µM
- TGI [5]: > 50 µM
- TGI [6]: > 50 µM
- TGI [7]: > 50 µM

SMILES: CCNCCCCNCC
- TGI [1]: > 3750 µM
- TGI [2]: > 3750 µM
- TGI [9]: > 3750 µM
- TGI [3]: > 37.5 µM
- TGI [4]: > 3750 µM
- TGI [5]: > 3750 µM
- TGI [6]: > 3750 µM
- TGI [7]: > 3750 µM
- TGI [8]: > 3750 µM

SMILES: CC[C@]12C=CCN3CCC4(c5cc([C@@]6(C(=O)OC)CC7CN(CCc8c6[nH]c6ccccc86)C[C@@H]6CCC[C@H]76)c(OC)cc5N(C)C4[C@](O)(C(=O)OC)C1OC(C)=O)C32 (some centres not stated)
- TGI [1]: > 10 µM
- TGI [2]: > 10 µM
- TGI [9]: 1.01 µM
- TGI [4]: 0.209 µM
- TGI [10]: > 3.45 µM
- TGI [5]: > 10 µM
- TGI [6]: 0.574 µM
- TGI [7]: > 2.85 µM
- TGI [8]: > 10 µM

SMILES: NC(N)=Nc1nc2ccccc2[nH]1
- GI50 [1]: 4.49 µg/mL
- TGI [1]: 111 µg/mL
- GI50 [2]: 54.4 µg/mL
- TGI [2]: > 150 µg/mL
- GI50 [9]: 10.5 µg/mL
- TGI [9]: 68 µg/mL
- outcome [3]: inactive
- outcome [4]: inactive
- GI50 [5]: 20.3 µg/mL
- TGI [5]: 51 µg/mL
- GI50 [6]: 33.7 µg/mL (≈ 192 µM)
- TGI [6]: > 150 µg/mL
- GI50 [7]: 150 µg/mL
- TGI [7]: > 150 µg/mL
- GI50 [8]: 36.2 µg/mL
- TGI [8]: > 150 µg/mL

SMILES: CC1=C2C(O)C(C(C)C(=O)NC(C)C)CCC2(C)C=CC1=O (configuration not stated)
- TGI [1]: > 100 µM
- TGI [2]: > 100 µM
- TGI [9]: > 100 µM
- TGI [3]: > 100 µM
- TGI [4]: > 100 µM
- TGI [6]: > 100 µM
- TGI [7]: > 100 µM
- TGI [8]: > 100 µM

SMILES: Cc1cc(N=Nc2ccc(N=Nc3c(O)c(S(=O)(=O)O)cc4cc(S(=O)(=O)O)ccc34)cc2C)ccc1N=Nc1ccc2cc(S(=O)(=O)O)cc(S(=O)(=O)O)c2c1
- TGI [1]: > 100 µM
- TGI [2]: > 100 µM
- TGI [9]: > 100 µM
- TGI [3]: > 100 µM
- TGI [4]: > 100 µM
- TGI [5]: > 100 µM
- TGI [6]: > 100 µM
- TGI [7]: > 100 µM
- TGI [8]: > 100 µM

SMILES: O=C(O)CNS(=O)(=O)c1ccc(NC(=O)Nc2ccccc2)cc1
- TGI [1]: > 100 µM
- TGI [2]: > 100 µM
- TGI [9]: > 100 µM
- TGI [3]: > 100 µM
- TGI [4]: > 100 µM
- TGI [5]: > 55.5 µM
- TGI [6]: > 100 µM
- TGI [7]: > 100 µM
- TGI [8]: > 52.9 µM

SMILES: N#Cc1c2nc3ccccc3nc2n2ccc3ccccc3c12
- TGI [1]: > 100 µM
- TGI [2]: > 100 µM
- TGI [9]: > 100 µM
- TGI [3]: > 100 µM
- TGI [10]: > 100 µM
- TGI [5]: > 100 µM
- TGI [6]: > 100 µM
- TGI [7]: > 100 µM

SMILES: O=c1[nH]c(=O)n(C2CC(O)C(CO)O2)cc1C#Cc1cc(F)cc(F)c1 (configuration not stated)
- TGI [1]: > 100 µM
- TGI [2]: > 100 µM
- TGI [9]: > 100 µM
- TGI [3]: 83.2 µM
- TGI [10]: > 100 µM
- TGI [5]: > 100 µM
- TGI [6]: > 100 µM
- TGI [7]: > 100 µM
- TGI [8]: > 100 µM

SMILES: COc1cc2c(cc1O)C(C)Cc1cc3c(cc1N(C)CC2)OCO3 (configuration not stated)
- TGI [1]: > 46.8 µM
- TGI [2]: 42.7 µM
- TGI [9]: > 21.9 µM
- TGI [3]: 90.9 µM
- TGI [4]: 26.9 µM
- TGI [10]: 19 µM
- TGI [5]: > 40.8 µM
- TGI [6]: 8.8 µM
- TGI [7]: 42.3 µM
- TGI [8]: 12 µM

SMILES: Cc1cc(-c2ccccc2)cc2[n+]1CC=C2
- TGI [2]: > 100 µM
- TGI [9]: > 100 µM
- TGI [4]: > 100 µM
- TGI [10]: > 100 µM
- TGI [5]: > 100 µM
- TGI [6]: > 100 µM
- TGI [7]: > 100 µM

SMILES: CC1OC(OC2CC(O)(C(=O)CO)Cc3c(O)c4c(c(O)c32)C(=O)c2ccccc2C4=O)CC(N)C1O (configuration not stated)
- TGI [9]: 0.0412 µM
- TGI [3]: 0.0358 µM
- TGI [4]: 0.779 µM
- TGI [10]: 0.229 µM
- TGI [5]: 0.15 µM
- TGI [6]: 0.121 µM
- TGI [7]: 0.898 µM
- TGI [8]: 0.109 µM

SMILES: CC(C)(O)[C@H](CCO)O[Si](c1ccccc1)(c1ccccc1)C(C)(C)C
- TGI [1]: 32.2 µM
- TGI [2]: 21 µM
- TGI [3]: 11.1 µM
- TGI [4]: 23.9 µM
- TGI [10]: 25.8 µM
- TGI [5]: 29.3 µM
- TGI [6]: 27.3 µM
- TGI [7]: 29.8 µM
- TGI [8]: 24.1 µM

SMILES: COc1cc(C=O)c(-c2cc3c(cc2C=O)OCO3)c(OC)c1OC
- TGI [1]: > 290 µM
- TGI [2]: > 290 µM
- TGI [9]: > 290 µM
- TGI [3]: > 290 µM
- TGI [4]: 147 µM
- TGI [5]: > 290 µM
- TGI [6]: 188 µM
- TGI [8]: > 290 µM

SMILES: CC1=NN(C(=O)Cc2ccccc2)C(=O)/C1=C\c1ccco1
- TGI [1]: > 100 µM
- TGI [2]: > 100 µM
- TGI [9]: > 100 µM
- TGI [3]: > 100 µM
- TGI [10]: > 100 µM
- TGI [5]: > 100 µM
- TGI [6]: > 100 µM
- TGI [7]: > 100 µM

SMILES: COc1cc([C@@H]2c3cc4c(c(O)c3C[C@H]3COC(=O)[C@@H]32)OCO4)cc(OC)c1O
- GI50 [1]: 0.00337 µM and 0.02 µM
- TGI [1]: > 35.6 µM
- GI50 [2]: 0.00421 µM and 0.02 µM
- TGI [2]: > 200 µM
- GI50 [9]: 0.00231 µM
- TGI [9]: 0.00546 µM
- GI50 [4]: 0.0105 µM and 0.0332 µM
- TGI [4]: 0.0279 µM and 0.059 µM
- GI50 [5]: 0.00461 µM
- TGI [5]: > 200 µM
- GI50 [7]: 0.00309 µM
- TGI [7]: > 200 µM
- GI50 [8]: 0.00454 µM
- TGI [8]: > 200 µM

SMILES: Cc1cc(NCCCCCCNc2cc(C)nc3ccc(Cl)cc23)c2cc(Cl)ccc2n1
- TGI [1]: 83.6 µM
- TGI [2]: 30.8 µM
- TGI [9]: 36 µM
- TGI [4]: 32.4 µM
- TGI [10]: > 100 µM
- TGI [5]: 43.4 µM
- TGI [6]: 29.4 µM
- TGI [7]: 56.8 µM
- TGI [8]: 36 µM

SMILES: CCN(CC)C1=Nc2ccccc2-n2c(C)cnc2C1
- TGI [1]: > 100 µM
- TGI [10]: > 100 µM
- TGI [6]: > 100 µM
- TGI [8]: > 100 µM

SMILES: C[C@]12CCC(=O)C=C1CC[C@@H]1C2CC[C@]2(C)Nc3c(ncn3-c3ccc(F)cc3)CC12 (some centres not stated)
- TGI [1]: 82.6 µM
- TGI [10]: > 100 µM
- TGI [6]: 34.3 µM
- TGI [8]: 54.4 µM

SMILES: CCc1n[nH]c(=O)n1NC(=O)/C=C\C(=O)O
- TGI [1]: > 100 µM
- TGI [10]: > 100 µM
- TGI [6]: > 100 µM
- TGI [8]: > 100 µM

SMILES: COC(=O)NN1C(=O)C(=P(c2ccccc2)(c2ccccc2)c2ccccc2)C(C(=O)OC)=C1C
- TGI [1]: > 100 µM
- TGI [9]: > 100 µM
- TGI [3]: > 100 µM
- TGI [4]: > 100 µM
- TGI [10]: > 100 µM
- TGI [5]: > 100 µM
- TGI [6]: > 100 µM
- TGI [7]: > 100 µM
- TGI [8]: > 100 µM

SMILES: CC1(C)O[C@@H]2[C@@H]3OC(=O)C[C@@H]3[C@@H](COCc3ccccc3)[C@@H]2O1
- TGI [1]: > 100 µM
- TGI [10]: > 100 µM
- TGI [6]: > 100 µM
- TGI [8]: > 100 µM

SMILES: COc1ccc([C@@H]2CC(=O)NCCCCNCCCN2)cc1
- TGI [1]: > 100 µM
- TGI [2]: > 100 µM
- TGI [9]: > 100 µM
- TGI [3]: > 100 µM
- TGI [4]: > 100 µM
- TGI [10]: > 100 µM
- TGI [5]: > 100 µM
- TGI [6]: > 100 µM
- TGI [7]: > 100 µM
- TGI [8]: > 100 µM
